According to paper PMC8003391, “QSAR-Based Virtual Screening of Natural Products Database for Identification of Potent Antimalarial Hits” (Biomolecules, 2021):
Read-outs that look alike come from different tables or passages of the source.

Experiments:
P. falciparum 3D7 = experiment: In vitro P. falciparum growth inhibition assay (SybrGreen), chloroquine-sensitive 3D7 strain; assay type: cell-based, Plasmodium falciparum; settings: for inhibition at 5 µM: 3D7, read-out: inhibition of parasite growth
Procedure: (§1) Chloroquine-sensitive (3D7) and multi-drug-resistant (W2) P. falciparum strains were cultured following the candle jar method as described by Trager and Jensen. Briefly, parasites were maintained in RPMI 1640 medium supplemented with 10% A+ human plasma at 5% CO2 atmosphere. Ring stage synchronized cultures were obtained by two consecutive treatments with a 5% D-sorbitol solution [32] in 48 h intervals.
(§2) Parasite growth inhibition assays were conducted by distributing ring stage synchronized parasites at 2% hematocrit and 0.5% parasitemia in 96-well plates (NEST Biotechnology Co., Ltd., Wuxi, Jiangsu, China). Parasites were incubated in the presence of drugs in a two-fold 12-point serial dilution starting at 10 µM in duplicate. Chloroquine was used as an antimalarial standard. At the end of a 72 h incubation, parasitemia was determined by fluorescence reading at 490 nm excitation and 540 nm emission (BMG CLARIOstar, BMG Labtech Inc., Durham, NC, USA) using SybrGreen fluorescent dye as described by Hartwig et al.. Parasite growth inhibition was determined as a percentage relative to drug-free control. EC50 values were interpolated from log doses vs. inhibition curves in GraphPad Prism 6 (GraphPad, La Jolla, CA, USA).

P. falciparum W2 [1] = tested on: P. falciparum W2; parameters: method as in PMID 25461309; settings: read-out: EC50 against multi-resistant strain; cited from earlier work
P. falciparum W2 [2] = experiment: In vitro P. falciparum growth inhibition assay (SybrGreen), multi-drug-resistant W2 strain; assay type: cell-based, Plasmodium falciparum; settings: for activity more potent than artesunate: W2, compared with artesunate EC50 = 5.7 nM
Procedure: as §1, §2

[3] = Cytotoxicity, MTT reduction assay; assay type: cell-based; settings: human
Procedure: Cytotoxicity of selected compounds was evaluated using the MTT reduction assay (3-[4,5-dimethyl-thiazol-2-yl]-2,5-diphenyltetrazolium chloride). Human hepatoma (HepG2) cells were cultured in Dulbecco’s Modified Eagle Medium supplemented with gentamycin (40 mg/L) and 10% heat-inactivated fetal bovine serum at 37 °C and 5% CO2. Cells were seeded in 96-well plates (NEST Biotechnology Co., Ltd., Wuxi, Jiangsu, China) at 10^5 cells per well and incubated in the presence of a serial dilution of the drugs starting at 100 µM. After 72 h of incubation, MTT was added to the wells. The optical density was measured at 570 nm (CLARIOStar, Labtech BMG Inc, Durham, NC, USA) and cell viability was expressed as a percentage relative to the untreated control. CC50 values were calculated by plotting a log dose vs. viability curve in GraphPad Prism 6 (GraphPad, La Jolla, CA, USA). The selectivity index (SI) of the compounds was determined by the expression:SI = (HepG2 CC50)/(Pf EC50), where HepG2 CC50 corresponds to the cytotoxic concentration of compounds in HepG2 cells and Pf EC50 relates to the 50% inhibitory concentration on P. falciparum 3D7 strain.

[4] = Plasmodium falciparum, 3D7, 72 h, chloroquine-sensitive 3D7 strain, 72 h, SybrGreen, ± standard deviation, read-out: EC50 Pf3D7
[5] = chloroquine-sensitive 3D7 strain, 72 h, SybrGreen, ± standard deviation, read-out: EC50 Pf3D7
[6] = Plasmodium falciparum, W2, 72 h, multi-drug-resistant W2 strain, 72 h, SybrGreen, ± standard deviation, read-out: EC50 PfW2
[7] = multi-drug-resistant W2 strain, 72 h, SybrGreen, ± standard deviation, read-out: EC50 PfW2
[8] = HepG2 cells, 72 h, MTT, read-out: CC50 HepG2
[9] = Plasmodium falciparum, 3D7, 3D7, text value, read-out: EC50 against P. falciparum 3D7
[10] = Plasmodium falciparum, W2, W2, text value, read-out: EC50 against P. falciparum W2

Compound	EC50 (P. falciparum 3D7; [4])	EC50 (P. falciparum 3D7; [5])	EC50 (P. falciparum W2 [2]; [6])	inhibition at 5 µM (P. falciparum 3D7; Plasmodium falciparum, 72 h)	CC50 at 72 h [3, 8]	also measured
C[C@H]1[C@H](OC(=O)CCC(=O)O)O[C@@H]2O[C@@]3(C)CC[C@H]4[C@H](C)CC[C@@H]1[C@@]24OO3 [Artesunate, reference compound]	0.0016 µM	–	–	–	–	EC50 (P. falciparum W2 [1]): 0.0057 µM
CCN(CC)CCCC(C)Nc1ccnc2cc(Cl)ccc12 (stereo not drawn) [Chloroquine, reference compound]	–	–	–	–	–	EC50 (P. falciparum 3D7; Plasmodium falciparum, 3D7, 72 h, read-out: EC50 Pf3D7): 0.0079 µM; EC50 (P. falciparum W2 [2]; Plasmodium falciparum, W2, 72 h, read-out: EC50 PfW2): 0.147 ± 0.04 µM
COc1ccccc1CNC(=O)C1CN2CCC1CC2Cn1cc(-c2cccc(N)c2)nn1 (stereo not drawn) [LDT-586]	< 5 µM	4.52 ± 0.91 µM	< 5 µM	> 70%	–	CC50 at 72 h [3]: 98.6 µM; EC50 (P. falciparum W2 [2]; [7]): 3.44 ± 1.3 µM
CCOC(=O)c1ccc2[nH]cc(C(=O)OCC)c(=O)c2c1 [LDT-588]	< 5 µM	3.84 ± 1.45 µM	–	> 70%	67 ± 2.28 µM	–
Cn1c(=O)[nH]c2nnc(-c3ccc(Cl)cc3)nc2c1=O [LDT-592]	9.09 ± 3.74 µM	–	3.11 ± 0.54 µM	> 70%	17 µM	–
COC(CNC(=O)CCC(=O)OC1OC2OC3(C)CCC4C(C)CCC(C1C)C24OO3)OC (stereo not drawn) [LDT-597]	–	–	–	> 70%	18.3 ± 3.51 µM	EC50 (P. falciparum 3D7; [9]): 0.00054 µM; EC50 (P. falciparum W2 [2]; [10]): 0.00056 µM; activity more potent than artesunate (P. falciparum W2 [2]): about 10 fold
CC(NC(=O)CCCNC(=O)CCC(=O)OC1OC2OC3(C)CCC4C(C)CCC(C1C)C24OO3)C(=O)O (stereo not drawn) [LDT-598]	–	–	–	> 70%	25.9 ± 1.13 µM	EC50 (P. falciparum 3D7; [9]): 0.00078 µM; EC50 (P. falciparum W2 [2]; [10]): 0.00059 µM; activity more potent than artesunate (P. falciparum W2 [2]): about 10 fold

Now from value to compound, other results behind:

EC50 (P. falciparum 3D7; [4])	EC50 (P. falciparum 3D7; [5])	EC50 (P. falciparum W2 [2]; [6])	Compound	inhibition at 5 µM (P. falciparum 3D7; Plasmodium falciparum, 72 h)	CC50 at 72 h [3, 8]	also measured
< 5 µM	3.68 ± 1.92 µM	< 5 µM	COc1ccc(C2c3[nH]c4ccccc4c3C[C@H]3C(=O)N(C4CC4)CC(=O)N23)cc1OC (stereo partly drawn) [LDT-599]	> 70%	21 ± 2.51 µM	EC50 (P. falciparum W2 [2]; [7]): 2.74 ± 0.78 µM
6.61 ± 3.2 µM	–	0.65 ± 0.47 µM	COc1cc(C2NCCc3cc(OC)c(OC)cc32)ccc1O (stereo not drawn) [LDT-601]	> 70%	21.8 ± 4.16 µM	–
5.26 ± 0.52 µM	–	5.65 ± 3.11 µM	COc1ccc(C2CC(=O)NC3=C2C(=O)C2(Oc4c(Cl)c(OC)cc(OC)c4C2=O)C(C)C3)cc1O (stereo not drawn) [LDT-614]	> 70%	23.6 ± 1.82 µM	–
